In patent publication US10493091B2, “Method for storing P1, P4-bis(5′-uridyl)teraphosphate crystals” (Yamasa Corporation, priority 2015, dated 2019):

Experiments:
[1] = Stability test of packed UP4U crystals, four weeks of storage, HPLC purity; assay type: physicochemical; conditions: for decrease in HPLC purity: regardless of the crystal pH
Description: (Packing of Test Sample) An amount of approximately 20 mg of each test sample was put into a pouch made of low-density polyethylene and sealed by heat sealing. This pouch was further put into a pouch made of low-density polyethylene and sealed by heat sealing. This pouch was still further put into a pouch made of low-density polyethylene and sealed by heat sealing. This pouch was put into a pouch made of aluminum-metallized film and sealed by heat sealing, thus preparing a sample for stability test. (Stability Test) Packed samples were put into thermostatic baths at 5° C., 25° C., 40° C., and 60° C., respectively, and stored for four weeks. (Analysis) For each sample zero days after the start of the stability test and samples of the same type at four weeks of storage at the different temperatures, the packing by sealing was opened and each of the test samples was dissolved in deionized water. This solution was analyzed by HPLC and, based on the analysis result, evaluated in terms of stability. The conditions of the measurement using HPLC in this analysis were as follows. [table] The evaluation was made by defining the value obtained by subtracting the HPLC purity (%) of crystals zero days after the start of the stability test from the HPLC purity (%) of the crystals at four weeks of storage as a rate of change (%).

[2] = pH measurement of UP4U crystals (crystal pH); assay type: physicochemical; conditions: 1.0 g dissolved in 20 mL distilled water
Description: The term crystal pH in the present invention refers to the value of pH of crystals measured with 1 g of crystals dissolved in 20 mL of water. The control of the pH of UP4U crystals within a desired range of values is possible, for example, by controlling the pH of an original solution for use in crystallization. To control the pH, it is sufficient to use, as necessary, an arbitrary acid or alkali capable of being used for production of raw materials or the like for pharmaceutical products. An arbitrary one selected from hydrochloric acid, nitric acid, phosphoric acid, and so on can be used as the acid and an arbitrary one selected from sodium hydroxide, sodium carbonate, sodium hydrogen carbonate, and so on can be used as the alkali.
Control of UP4U Crystals with Different pHs UP4U crystals prepared by a known method were dissolved in deionized water. Various phosphoric acid aqueous solutions or sodium hydroxide aqueous solutions were each added to the solution containing UP4U dissolved therein to prepare solutions having different pHs (hereinafter, referred to as “original solutions”).
Ethanol was put into each of the original solutions to make the original solution lightly cloudy, followed by addition of a small amount of UP4U crystals and stirring for a dozen hours. After confirmation of crystal precipitation, ethanol was further put into each of the solutions, the solution was stirred, and crystals were then separated from the solution using a centrifuge. The obtained various crystals were dried with a circulation dryer to prepare various UP4U crystals having different pHs.
(pH Measurement) Water was sufficiently boiled and then cooled in a state where a carbon dioxide absorption tube was connected, thus preparing distilled water. An amount of 1.0 g of each test sample was dissolved in 20 mL of the prepared distilled water. The pH (crystal pH) of this solution was measured.

- rate of change in HPLC purity ([1]; 5° C., four weeks of storage, crystal pH 4.60): 0.01%
- rate of change in HPLC purity ([1]; 5° C., four weeks of storage, crystal pH 5.16): 0.00%
- rate of change in HPLC purity ([1]; 5° C., four weeks of storage, crystal pH 5.54): 0.00%
- rate of change in HPLC purity ([1]; 5° C., four weeks of storage, crystal pH 5.64): 0.00%
- rate of change in HPLC purity ([1]; 5° C., four weeks of storage, crystal pH 5.97): 0.00%
- rate of change in HPLC purity ([1]; 5° C., four weeks of storage, crystal pH 6.32): 0.00%
- rate of change in HPLC purity ([1]; 5° C., four weeks of storage, crystal pH 6.66): −0.01%
- rate of change in HPLC purity ([1]; 5° C., four weeks of storage, crystal pH 6.91): 0.00%
- rate of change in HPLC purity ([1]; 5° C., four weeks of storage, crystal pH 7.12): 0.00%
- rate of change in HPLC purity ([1]; 5° C., four weeks of storage, crystal pH 7.43): 0.01%
- rate of change in HPLC purity ([1]; 5° C., four weeks of storage, crystal pH 7.97): 0.03%
- rate of change in HPLC purity ([1]; 25° C., four weeks of storage, crystal pH 4.60): −0.01%
- rate of change in HPLC purity ([1]; 25° C., four weeks of storage, crystal pH 5.16): −0.02%
- rate of change in HPLC purity ([1]; 25° C., four weeks of storage, crystal pH 5.54): −0.02%
- rate of change in HPLC purity ([1]; 25° C., four weeks of storage, crystal pH 5.64): −0.01%
- rate of change in HPLC purity ([1]; 25° C., four weeks of storage, crystal pH 5.97): −0.02%
- rate of change in HPLC purity ([1]; 25° C., four weeks of storage, crystal pH 6.32): −0.01%
- rate of change in HPLC purity ([1]; 25° C., four weeks of storage, crystal pH 6.66): −0.03%
- rate of change in HPLC purity ([1]; 25° C., four weeks of storage, crystal pH 6.91): −0.02%
- rate of change in HPLC purity ([1]; 25° C., four weeks of storage, crystal pH 7.12): −0.02%
- rate of change in HPLC purity ([1]; 25° C., four weeks of storage, crystal pH 7.43): −0.01%
- rate of change in HPLC purity ([1]; 25° C., four weeks of storage, crystal pH 7.97): −0.01%
- rate of change in HPLC purity ([1]; 40° C., four weeks of storage, crystal pH 4.60): −0.05%
- rate of change in HPLC purity ([1]; 40° C., four weeks of storage, crystal pH 5.16): −0.04%
- rate of change in HPLC purity ([1]; 40° C., four weeks of storage, crystal pH 5.54): −0.03%
- rate of change in HPLC purity ([1]; 40° C., four weeks of storage, crystal pH 5.64): −0.02%
- rate of change in HPLC purity ([1]; 40° C., four weeks of storage, crystal pH 5.97): −0.03%
- rate of change in HPLC purity ([1]; 40° C., four weeks of storage, crystal pH 6.32): −0.02%
- rate of change in HPLC purity ([1]; 40° C., four weeks of storage, crystal pH 6.66): −0.04%
- rate of change in HPLC purity ([1]; 40° C., four weeks of storage, crystal pH 6.91): −0.04%
- rate of change in HPLC purity ([1]; 40° C., four weeks of storage, crystal pH 7.12): −0.08%
- rate of change in HPLC purity ([1]; 40° C., four weeks of storage, crystal pH 7.43): −0.15%
- rate of change in HPLC purity ([1]; 40° C., four weeks of storage, crystal pH 7.97): −0.12%
- rate of change in HPLC purity ([1]; 60° C., four weeks of storage, crystal pH 4.60): −0.25%
- rate of change in HPLC purity ([1]; 60° C., four weeks of storage, crystal pH 5.16): −0.08%
- rate of change in HPLC purity ([1]; 60° C., four weeks of storage, crystal pH 5.54): −0.07%
- rate of change in HPLC purity ([1]; 60° C., four weeks of storage, crystal pH 5.64): −0.07%
- rate of change in HPLC purity ([1]; 60° C., four weeks of storage, crystal pH 5.97): −0.08%
- rate of change in HPLC purity ([1]; 60° C., four weeks of storage, crystal pH 6.32): −0.14%
- rate of change in HPLC purity ([1]; 60° C., four weeks of storage, crystal pH 6.66): −0.18%
- rate of change in HPLC purity ([1]; 60° C., four weeks of storage, crystal pH 6.91): −0.24%
- rate of change in HPLC purity ([1]; 60° C., four weeks of storage, crystal pH 7.12): −0.46%
- rate of change in HPLC purity ([1]; 60° C., four weeks of storage, crystal pH 7.43): −0.50%
- rate of change in HPLC purity ([1]; 60° C., four weeks of storage, crystal pH 7.97): −0.87%
- rate of change in HPLC purity ([1]; four weeks, one of: (1) 0° C. or more and less than 25° C., (2) 25° C. or more and less than 40° C. and crystal pH 4.5 to 8.0, (3) 40° C. or more and less than 60° C. and crystal pH 5.0 to 6.4): ≤ 0.15%
- rate of change in HPLC purity ([1]; four weeks, one of: (4) 0° C. or more and less than 25° C., (5) 25° C. or more and less than 40° C. and crystal pH 4.5 to 7.4, (6) 40° C. or more and less than 60° C. and crystal pH 5.2 to 6.2): ≤ 0.10%
- rate of change in HPLC purity ([1]; four weeks, one of: (7) 0° C. or more and less than 25° C., (8) 25° C. or more and less than 40° C. and crystal pH 4.6 to 6.6): ≤ 0.05%
- decrease in HPLC purity ([1]; storage temperature 0° C. or more and less than 25° C.): substantially no decrease
- decrease in HPLC purity ([1]; storage temperature of 60° C. or more): may significantly decrease
- Crystal pH ([2]; original liquid pH 2.50): 4.60
- Crystal pH ([2]; original liquid pH 3.00): 5.16
- Crystal pH ([2]; original liquid pH 3.50): 5.54
- Crystal pH ([2]; original liquid pH 4.00): 5.64
- Crystal pH ([2]; original liquid pH 5.50): 5.97
- Crystal pH ([2]; original liquid pH 6.50): 6.32
- Crystal pH ([2]; original liquid pH 7.40): 6.66
- Crystal pH ([2]; original liquid pH 7.80): 6.91
- Crystal pH ([2]; original liquid pH 8.00): 7.12
- Crystal pH ([2]; original liquid pH 8.10): 7.43
- Crystal pH ([2]; original liquid pH 8.20): 7.97
SMILES: O=c1ccn([C@@H]2O[C@H](COP(=O)(O)OP(=O)(O)OP(=O)(O)OP(=O)(O)OC[C@H]3O[C@@H](n4ccc(=O)[nH]c4=O)[C@H](O)[C@@H]3O)[C@@H](O)[C@H]2O)c(=O)[nH]1 [UP4U crystals, P^1,P^4-bis(5′-uridyl)tetraphosphate]
